# Test results reported in patent publication US20250114387A1, “PHARMACEUTICAL COMPOSITION COMPRISING ENAVOGLIFLOZIN FOR PREVENTING OR TREATING OBESITY IN CANINE ANIMALS” (DAEWOONG PHARMACEUTICAL CO., LTD., priority 2022, published 2025).
# How the values were obtained:
# [1] = test system: obese dogs; assay: Clinical trial in obese dogs: feed intake; assay type: in vivo; settings: for feed intake compared to the control (OC): during the 10-week experimental period
# Procedure: A total of 20 dogs were selected and divided into 4 groups with 5 dogs in each group: a normal obese control (OC); hereinafter, referred to as a control (OC)), an enavogliflozin 0.2-administered group, an enavogliflozin 0.5-administered group, and an enavogliflozin 1-administered group. The control was fed regular feed, and the enavogliflozin-administered groups were fed regular feed supplemented with enavogliflozin at doses of 0.2, 0.5, or 1 mg/kg, respectively. […]
# [2] = test system: obese dogs; assay: Clinical trial in obese dogs: serum insulin concentration (ELISA); assay type: in vivo; settings: for Insulin: serum
# Procedure: A total of 20 dogs were selected and divided into 4 groups with 5 dogs in each group: a normal obese control (OC); hereinafter, referred to as a control (OC)), an enavogliflozin 0.2-administered group, an enavogliflozin 0.5-administered group, and an enavogliflozin 1-administered group. The control was fed regular feed, and the enavogliflozin-administered groups were fed regular feed supplemented with enavogliflozin at doses of 0.2, 0.5, or 1 mg/kg, respectively. The feed was supplemented with enavogliflozin once a day for 8 weeks and given orally.
# Serum insulin concentrations were measured 2, 4, 6, 8, and 10 weeks after the start of enavogliflozin administration using a Quantikine Canine Insulin ELISA kit (Catalog no. DINS00, R&D Systems, Minneapolis, MN, USA) according to the manufacturer's protocol. Urine biochemical parameters were evaluated using urine test strips 2, 4, 6, and 10 weeks after the start of enavogliflozin administration, and urinary glucose (GLU) excretion was measured using UriSCAN® Strip (YD Diagnostics Corp., Yong-in, Korea).
compound,measurement,setting,value
"OC[C@H]1O[C@@H](c2cc(Cc3ccc(C4CC4)cc3)c(Cl)c3c2CCO3)[C@H](O)[C@@H](O)[C@@H]1O [Enavogliflozin, enavogliflozin]",Change rates of food consumption,"[1]; 0.2 mg/kg once a day oral for 8 weeks, week 0",100.00 ± 0.00%
same,Change rates of food consumption,"[1]; 0.2 mg/kg once a day oral for 8 weeks, week 2",126.52 ± 5.48 %
same,Change rates of food consumption,"[1]; 0.2 mg/kg once a day oral for 8 weeks, week 4",146.64 ± 5.37 %
same,Change rates of food consumption,"[1]; 0.2 mg/kg once a day oral for 8 weeks, week 6",153.71 ± 4.11 %
same,Change rates of food consumption,"[1]; 0.2 mg/kg once a day oral for 8 weeks, week 8",168.32 ± 4.80 %
same,Change rates of food consumption,"[1]; 0.2 mg/kg once a day oral for 8 weeks, week 10, 0.2 mg/kg",166.59 ± 4.72 %
same,Change rates of food consumption,"[1]; 0.2 mg/kg once a day oral for 8 weeks, week 10, listed as enavogliflozin, 0.2 mg/kg",166.59±4.72%
same,feed intake compared to the control (OC),"[1]; 0.2 mg/kg, p<0.001",significantly increased
same,Change rates of food consumption,"[1]; 0.5 mg/kg once a day oral for 8 weeks, week 0",100.00 ± 0.00%
same,Change rates of food consumption,"[1]; 0.5 mg/kg once a day oral for 8 weeks, week 2",95.13 ± 1.67 %
same,Change rates of food consumption,"[1]; 0.5 mg/kg once a day oral for 8 weeks, week 4",92.34 ± 2.10 %
same,Change rates of food consumption,"[1]; 0.5 mg/kg once a day oral for 8 weeks, week 6",92.30 ± 1.60 %
same,Change rates of food consumption,"[1]; 0.5 mg/kg once a day oral for 8 weeks, week 8",93.64 ± 1.67 %
same,Change rates of food consumption,"[1]; 0.5 mg/kg once a day oral for 8 weeks, week 10, 0.5 mg/kg",98.47 ± 1.44%
same,Change rates of food consumption,"[1]; 0.5 mg/kg once a day oral for 8 weeks, week 10, listed as enavogliflozin, 0.5 mg/kg",98.47±1.44%
same,feed intake compared to the control (OC),[1]; 0.5 mg/kg,decreased
same,Change rates of food consumption,"[1]; 1 mg/kg once a day oral for 8 weeks, week 0",100.00 ± 0.00%
same,Change rates of food consumption,"[1]; 1 mg/kg once a day oral for 8 weeks, week 2",100.80 ± 4.20%
same,Change rates of food consumption,"[1]; 1 mg/kg once a day oral for 8 weeks, week 4",116.02 ± 3.09 %
same,Change rates of food consumption,"[1]; 1 mg/kg once a day oral for 8 weeks, week 6",121.84 ± 2.50 %
same,Change rates of food consumption,"[1]; 1 mg/kg once a day oral for 8 weeks, week 8",121.88 ± 2.36 %
same,Change rates of food consumption,"[1]; 1 mg/kg once a day oral for 8 weeks, week 10, 1 mg/kg",123.15 ± 2.45 %
same,Change rates of food consumption,"[1]; 1 mg/kg once a day oral for 8 weeks, week 10, listed as enavogliflozin, 1 mg/kg",123.15±2.45%
same,feed intake compared to the control (OC),"[1]; 1 mg/kg, p<0.001",significantly increased
same,insulin concentration compared to the control (OC),[2]; 0.5 mg/kg,significantly lower
same,serum insulin concentration compared to the control (OC),[2]; all administration groups,decreased compared to the control (OC)
same,Insulin,[2]; 0.2 mg/kg once a day oral for 8 weeks,126.60 ± 15.45 ng/mL
same,Insulin,[2]; 0.5 mg/kg once a day oral for 8 weeks,99.82 ± 18.48 ng/mL
same,Insulin,[2]; 1 mg/kg once a day oral for 8 weeks,110.75 ± 21.96 ng/mL
